Test results reported in publication PMC4821856, “Novel Anti-Campylobacter Compounds Identified Using High Throughput Screening of a Pre-selected Enriched Small Molecules Library” (Frontiers in Microbiology, 2016).

Tests used:
[1] = Cytotoxicity by LDH release; assay type: cell-based, human; details: human, Caco-2 cells, 24 h, LDH release, no FBS
Experimental: (§1) We evaluated 12 selected compounds for cytotoxicity to Caco-2 (human colonic carcinoma) cells as described previously (Xu et al., [2015]). The Caco-2 cells were obtained from the American Type Culture Collection (ATCC Rockville, MD) and maintained in minimal essential medium (MEM) supplemented with 20% fetal bovine serum (FBS), 1% non-essential amino acid (NEAA; Life Technologies, NY) and with 1 mM sodium pyruvate at 37°C in a humidified 5% CO2 incubator. A 96-well tissue culture plate was seeded with approximately 1.4 × 10^5 cells per well and incubated for 24 h at 37°C in an incubator until a confluent monolayer formed. It was necessary to assess the dose dependent cytotoxicity effect of DMSO as compounds were diluted in DMSO therefore, we determined the cytotoxic effect of varying concentrations of the DMSO vehicle control (1, 2, and 5%) in Caco-2 cells containing 150 μL of media (without FBS) incubated at 24 h. There was no significant difference among the varying DMSO concentrations and their cytotoxicity values. Therefore, we used 1% DMSO in duplicate wells along with other appropriate controls for cytotoxicity experiment.
(§2) It is likely that the compounds can bind to serum proteins (FBS) present in the media and thus influence the true cytotoxic effect of the compounds; therefore, we performed the cytotoxicity assay in absence of FBS. The cytotoxicity assay was performed according to manufacturer instructions (Pierce TM; Thermo Scientific, IL) and the percentage of cytotoxicity was calculated by measuring the release of lactate dehydrogenase (LDH) enzyme from the treated cells. Briefly, ~1.4 × 10^5 cells were grown in a 96-well tissue culture plate containing 150 μL of growth medium. After three washes with medium without supplementation, 1 μL (200 μM) of compound was added to duplicate wells and incubated for 24 h at 37°C in a humidified, 5% CO2 incubator. Subsequently, 50 μL of supernatants were collected for measuring LDH release and the degree of cytotoxicity was determined according to the manufacturer instructions.
(§3) Three independent experiments were conducted in duplicate samples in each experiment and the average cytotoxicity values were plotted.

[2] = system: Caco-2 (human colonic carcinoma) cells; test: Cytotoxicity by LDH release; assay type: cell-based; details: Caco-2 cells, 200 μM; for Cytotoxicity (%): 24 h, LDH release, no FBS
Experimental: as §1, §2, §3

Compound	cytotoxicity at 24 h, 200 µM [1] [%]	Relative cytotoxicity among the 12 compounds [2]	Cytotoxicity (%) [2] [%]
O=S(=O)(Nc1cccc(C(F)(F)F)c1)c1ccc(Br)cc1 [Comp 1]	30.3	highest cytotoxicity	–
COc1ccc(CN2CCN(c3ccc(F)cc3)CC2)cc1C [Comp 2]	≤ 10	–	6.9
CN(C)c1ccc(CN2CCN(c3ccccc3Cl)CC2)cc1 [Comp 3]	11.3	–	–
Clc1ccc(N2CCN(Cc3ccsc3)CC2)cc1 [Comp 4]	–	–	4.6
Cc1ccc(N2CCN(C/C=C/c3ccccc3)CC2)cc1 [Comp 5]	≤ 10	–	6.5
O=c1c(Cl)c(Cl)cnn1-c1ccccc1Cl [Comp 7]	28	–	–
Cc1c(C(C)NCc2cccc(OC3CCCC3)c2)cnn1-c1ccccc1 (centres unmarked) [Comp 10]	27.8	–	–
COc1ccc(CNCc2ccc(Cl)s2)cc1OCC(O)CN1CCCC1 (centres unmarked) [Comp 12]	–	least cytotoxic	0
CN(Cc1cccc2cnccc12)CC1CCCN(CCc2ccc(F)cc2)C1 (centres unmarked) [Comp 13]	–	least cytotoxic	0
CN(CC(O)COc1ccccc1CNC1(c2ccccc2)CC1)C1CCCCC1 (centres unmarked) [Comp 17]	16.6	–	–
CN(Cc1ccccc1)CC1CCCN(CCc2ccc(F)cc2)C1 (centres unmarked) [Comp 18]	8.8	–	–
CC(=O)Nc1ccc(CN(C)CC2CCCN(CCc3cccc(C(F)(F)F)c3)C2)cc1 (centres unmarked) [Comp 22]	12.1	–	–
